# Laboratory results taken from patent US10426755B2, “Methods for inhibiting cancer cells” (Chang Gung Memorial Hospital, Chiayi, priority 2015, dated 2019).
# “Also recorded” adds a separate entry of the source.
# Columns and labels:
# Type in all cases: cell-based
# [1] = system: prostate cancer cell lines (LNCaP, hormone therapy-resistant PC3, DU145 and 22RV1); assay: XTT proliferation assay, prostate cancer cells; conditions: 1, 5 and 10 μM DT, 1-2 days, XTT absorbance 492 nm; FIG. 1
# Method: An in vitro evaluation of the effect of dihydroisotanshinone I (DT) on the following prostate cancer cell lines was performed: LNCaP (with lymph node metastasis), hormone therapy resistant PC3 (with bone metastasis), 22RV1, DU145 (with brain metastasis), were obtained from Bioresource Collection and Research Center, Taiwan and DT was purchased from ChemFaces Co., Ltd., China.
# (§1) The prostate cancer cells were plated at a density of 10^3 or 3×10^3 per well, in a 96-well plate, in a medium containing 10% Fetal bovine serum (FBS) (Gibco®, commercially available from Life Technologies, USA). Once the prostate cancer cells were attached to the culture dish, the 10% FBS medium was replaced with a second 10% FBS medium and each of the prostate cancer cell line was treated with 1, 5, and 10 μM of DT respectively for 1-2 days. The absorbance was measured using XTT assay kit (commercially available from Roche, Switzerland) at 492 nm using an ELISA reader (Bio-Rad Laboratories, USA).
# [2] = system: breast cancer cell lines (MDA-MB-231, MCF-7 and tamoxifen-resistant MCF-7); assay: XTT proliferation assay, breast cancer cells; conditions: 0, 5, 10 and 20 μM DT, 1-3 days, FIG. 3
# Method: as §1
# (§2) An in vitro evaluation of the effect of DT on the breast cancer cells was performed. The breast cancer cell lines, MDA-MB-231, MCF-7 and tamoxifen-resistant MCF-7 breast cancer cells were obtained from Bioresource Collection and Research Center, Taiwan. The breast cancer cells were cultured in Eagle's Minimum Essential Medium containing 10% charcoal-stripped fetal bovine serum and plated according to the steps in Example 1 and each of the breast cancer cell line was treated with 0 (control), 5, 10 and 20 μM of DT, respectively for 1-3 days. The absorbance was measured using XTT assay kit at 492 nm using an ELISA reader.
# [3] = system: tamoxifen-resistant MCF-7 breast cancer cells; assay: XTT proliferation assay, tamoxifen-resistant MCF-7; conditions: 1-3 days, Panel (c) of FIG. 3
# Method: as §1, §2
# [4] = system: chemotherapy-resistant colorectal cancer cells (HCT116); assay: XTT proliferation assay, colorectal cancer cells; conditions: 1, 5 and 10 μM DT, 1-3 days, FIG. 5
# Method: as §1
# An in vitro evaluation of the effect of DT on the chemotherapy-resistant colorectal cancer cells was performed. The chemotherapy-resistant colorectal cancer cells (HCT116) were obtained from Dr. K D Lee at Chang Gung Memorial Hospital, Chiayi, Taiwan. The colorectal cancer cells were cultured and plated according to the steps in Example 1 and treated with 0 (control), 1, 5 and 10 μM of DT, respectively for 1-3 days. The absorbance was measured using XTT assay kit at 492 nm using an ELISA reader.
# [5] = system: lung cancer cells (A549 and chemotherapy-resistant/metastatic H460); assay: Annexin V/PI flow cytometry apoptosis/necrosis, lung cancer cells; conditions: 10 or 20 μM DT, 24-48 hours, vs PBS and DMSO vehicle (CT); time dependent; FIG. 7
# Method: The effect of DT on metastatic prostate cancer cells (hormone therapy-resistant PC3, DU145 and LNCaP); lung cancer cells (A549 and chemotherapy-resistant/metastatic H460); and breast cancer cells (MCF-7, tamoxifen-resistant MCF7 and MDA MB-231) was assessed.
# 1×10^6 Cancer cells were seeded in a 100-mm plate and cultured overnight. The cancer cells were treated with phosphate buffered saline (PBS), a Dimethyl sulfoxide (DMSO) vehicle (CT), 10 or 20 μM of DT for 24-48 hours, then collected and washed with cold PBS. The supernatant was removed by centrifugation and resuspended in FITC Annexin V binding buffer and Propidium iodide (PI) (Annexin V-FITC Apoptosis Detection Kit, commercially available from Strong Biotech Corporation, Taiwan). The suspended cancer cells were stained at room temperature, in the dark for 15 min and analyzed by the BD FACSCanto™ flow cytometry (Becton Dickinson, USA). The amount of early apoptosis, late apoptosis, and necrosis was measured as the percentage of annexin-V positive/PI negative (Q4 in the FACS images), annexin-V positive/PI positive (Q2 in the FACS images), and annexin-V negative/PI positive cells (Q1 in the FACS images), respectively. Normal cells are in […] of the FACS images.
# [6] = system: skp2 and downstream genes in HCT116 colon cancer cells; assay: skp2 and downstream gene mRNA expression, colon cancer cells; conditions: various concentrations of DT vs DMSO, FIG. 10 (g), (i)
# Method: It has been reported that skp2 plays an important role in the metastasis of cancer cells. An in vitro evaluation of the effect of DT on prostate cancer cell metastasis was performed, by measuring the mRNA expression of skp2 in the following prostate cancer cell lines: meatstatic DU145 cells (Panels i-j of FIG. 9), hormone therapy resistant and metastatic PC3 cells (Panel h of FIG. 9), and 22RV1 cells (Panels k-l of FIG. 9), A549 lung cancer cells (Panels (c)-(e) of FIG. 10), chemotherapy-resistant/metastatic H460 lung cancer cells (Panels (d) and (f) of FIG. 10), HCT116 colon cancer cells (Panels (g) and (i) of FIG. 10) and MCF7-tamoxifen resistant breast cancer cells (Panels (h) and (j) of FIG. 10) […].
# The cancer cells were treated with DMSO and various concentrations of DT.
# [7] = system: prostate cancer cells (metastatic DU145, PC3, 22RV1); assay: Cell migration (wound-healing) assay, prostate cancer cells; conditions: DT vs control vehicle, 24 h, dose dependent; FIG. 12 (b), (d), (f)
# Method: An in vitro evaluation of the effect of DT on lung cancer cells (A549 and chemotherapy resistant/metastatic H460), prostate cancer cells (metastatic DU145) and colorectal cancer cells (chemotherapy resistant HCT116) invasion and migration was performed, using cell invasion assay and cell migration assay.
# Cell Migration Assay: In vitro wound-healing assay was used to assess cell motility in two dimensions. Cancer cells were plated overnight to achieve a subconfluent cell layer in 24-well plates. A scratch was made on the cell layer with a micropipette tip, and cultures were washed twice with serum-free medium to remove floating cells. Cancer cells were incubated in a culture medium containing DT or the control vehicle. Wound healing was visualized by comparing photographs taken at the time of adding the DT/control vehicle and 24 h later. Three experiments were done in quadruplicates.
# [8] = system: CCL2 in hormone therapy resistant and metastatic PC3 prostate cancer cells; assay: CCL2 ELISA of culture medium, PC3; conditions: 5 or 10 μM DT, 24 hours, vs DMSO, FIG. 14 (d)
# Method: It has been reported that increased CCL2 expression enhances cancer cell metastasis via macrophage recruitment. The effect of DT on CCL2 expression in RAW264.7 macrophages, THP1 monocytes and prostate cancer cells (metastatic DU145 and hormone therapy resistant and metastatic PC3) was examined by treating the cells with DMSO (control), 5 or 10 μM DT for 24 hours.
# The culture medium was collected and the concentration of CCL2 was measured using ELISA assay.
compound,measurement,setting,value
"Cc1cccc2c3c(ccc12)C(=O)C1=C(OCC1C)C3=O (centres unmarked) [DT, dihydroisotanshinone I]",inhibition of prostate cancer cell proliferation,[1],inhibits prostate cancer cell proliferation in a dose dependent fashion
same,inhibition of breast cancer cells (proliferation),[2],"effective in inhibiting breast cancer cells, even for the tamoxifen-resistant MCF-7 breast cancer cells, in a dose dependent and time dependent fashion"
same,dose of DT required for inhibiting tamoxifen-resistant MCF-7 cells,[3],> 1 µM
same,inhibition of chemotherapy-resistant colorectal cancer cells,[4],effective in inhibiting chemotherapy-resistant colorectal cancer cells in a dose dependent manner
same,"early apoptosis, late apoptosis and necrosis, lung cancer cells",[5],"more early apoptosis, late apoptosis and necrosis; also recorded: induced lung cancer cell apoptosis/necrosis"
same,"mRNA expression of skp2 and its downstream genes, colorectal cancer",[6],"effectively inhibit mRNA expression of skp2 and its downstream genes; also recorded: reduces skps and its downstream genes, MMP2, MMP9 and E-cadherin"
same,prostate cancer cell migration into the wounded area,[7],reduced the motility and migration of prostate cancer cells; also recorded: reduced prostate cancer cell migration into the wounded area
same,production of CCL2 in PC3 prostate cancer cells,[8],effectively inhibit the production of CCL2
